Patent US20040029841A1, “Purinergic antagonists for treating depression” (priority 2002, published 2004)

System: brain bioenergetic status
Assay: In vivo 31P magnetic resonance spectroscopy and T2 relaxation times of the brain (axial slice, bilateral basal ganglia) in healthy individuals taking oral SAMe
Parameters: species or system human
Method: This lowering was measured as a decrease in the ratio of beta ATP to total ^31P MRS metabolites and detected using magnetic resonance imaging (see, e.g., U.S. Pat. No. 6,258,794, hereby incorporated by reference).
Five healthy men and seven healthy women self-administered 1600 mg of oral SAMe daily. The effect of SAMe on brain bioenergetic status, membrane integrity, and brain transverse relaxation time (T2) was then examined. In vivo ^31P magnetic resonance spectra and relaxation times were acquired, at baseline and after 14 and 28 days of treatment, from an axial slice (50 mm) encompassing the bilateral basal ganglia using a 1.5-T scanner. […] The changes observed in PCr and β-NTP are consistent with the report that SAMe is involved in the production of creatine, which in turn is phosphorylated to PCr at the expense of β-NTP (Braissant et al., Brain Res. Mol. Brain Res. 2001, 86:193-201).
As changes in T2 relaxation times are inversely related to alterations in steady state blood flow, the decrease in T2 observed in women corresponds to a 3.8% increase in cerebral blood flow.

## C[S+](CC[C@H](N)C(=O)O)C[C@H]1O[C@@H](n2cnc3c(N)ncnc32)[C@H](O)[C@@H]1O (some centres unmarked) [SAMe, S-adenosylmethionine]
Healthy individuals, on average, magnetic resonance
  circulating levels of ATP (ratio of beta ATP to total 31P MRS metabolites): lowering of circulating levels of ATP
Healthy men and women, 1600 mg oral SAMe daily, 14 and 28 days of treatment vs baseline, 31P MRS, basal ganglia slice
  mole percent concentrations of phosphocreatine (PCr): significantly higher than at baseline
Healthy men and women, 1600 mg oral SAMe daily, after treatment vs baseline, 31P MRS, FIG. 1
  mole percent beta nucleoside triphosphate (β-NTP) levels, predominantly adenosine triphosphate in the brain: decreased significantly
Women vs men at the end of the treatment regimen, 1600 mg oral SAMe daily
  brain transverse relaxation time (T2): significantly lower T2 values than men
women, worked out from the decrease in T2 relaxation time
  increase in cerebral blood flow: 3.8%
